pIC50: −log10 of the molar value.
Legend:
[1] = biological target: T1, ABHD12 (Mus musculus, UniProt Q99LR1); assay: Gel-based competitive ABPP, JJH350 probe vs brain membrane proteome; assay type: biochemical; conditions: for inhibition at 10 µM: 10 μM compound, read-out: % Inhibition @ 10 μM (ABPP gel_JJH350 probe vs brain mem); for pIC50: read-out: IC50 (ABPP gel_JJH350 probe vs brain mem)
T1 construct: from tissue; host or cells: brain membrane proteome
T1 sequence (Q99LR1 1-398): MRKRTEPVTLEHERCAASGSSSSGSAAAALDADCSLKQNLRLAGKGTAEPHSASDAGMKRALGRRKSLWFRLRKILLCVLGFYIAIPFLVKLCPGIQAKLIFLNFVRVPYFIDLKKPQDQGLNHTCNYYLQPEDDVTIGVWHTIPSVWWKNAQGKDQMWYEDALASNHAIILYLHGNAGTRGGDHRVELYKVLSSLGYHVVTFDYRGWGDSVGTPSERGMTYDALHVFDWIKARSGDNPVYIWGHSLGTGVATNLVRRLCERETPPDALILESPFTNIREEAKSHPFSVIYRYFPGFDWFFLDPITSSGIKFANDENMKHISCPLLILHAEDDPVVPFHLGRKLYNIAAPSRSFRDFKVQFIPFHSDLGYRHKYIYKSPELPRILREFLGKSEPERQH
Method: Gel-Based Competitive ABPP for In Vitro Inhibitor Treatment of Proteomes:
Gel-based ABPP assays were performed as previously reported (Bachovchin, D. A. et al. Superfamily-wide portrait of serine hydrolase inhibition achieved by library-versus-library screening. Proc. Natl. Acad. Sci. U. S. A. 2010, 107, 20941-20946). Cell or tissue proteomes (50 μL, 1 mg/mL) were treated with either FP-Rh (1 μM final concentration) or JJH350 (2 μM final concentration) for 45 min at 37° C. For FP-Rh labeled samples, the reactions were quenched by adding 20 μL of 4× SDS-PAGE loading buffer. The 30 μL of the quenched samples were loaded on gel for analysis. For (S)-1,3-dioxo-7-(4-phenoxybenzoyl)hexahydroimidazo[1,5-a]pyrazin-2(3H)-yl 4-(4-(prop-2-yn-1-yloxy)phenyl)piperazine-1-carboxylate (JJH350)-labeled samples, copper-catalyzed azide-alkyne cycloaddition (CuAAC) was used for visualizing the labeled proteins following the reported protocol. Briefly, rhodamine-PEG3-N3 (1 μL/reaction, 1.25 mM in DMSO), CuSO4 (1 μL/reaction, 50 mM in H2O), TBTA (3 μL/reaction, 1.7 mM in DMSO/t-BuOH [1:4, v/v]) and tris(2-carboxyethyi)phosphine (TCEP) (1 μL/reaction, 50 mM in H2O, freshly prepared) were premixed. 6 μL of this click reagent mixture was immediately added to each JJH350-labeled samples (50 μL, 1 mg/mL) and incubated for 1 h at room temperature. The reactions were quenched by adding 20 μL of 4× SDS-PAGE loading buffer. The 40 μL of the quenched samples were loaded on a gel for analysis.
After separation by SDS-PAGE (10% acrylamide), samples were visualized by in-gel fluorescence scanning using the ChemiDoc MP system (Bio-Rad). Band intensities were quantified using the Image Lab (5.2.1) software (Bio-Rad).

[2] = biological target: T2, ABHD12 (Homo sapiens, UniProt Q8N2K0); assay: Lyso-PS hydrolysis assay (substrate-based), ABHD12-overexpressing HEK293T membrane lysate; assay type: biochemical; conditions: 17:1 lyso-PS substrate; ABHD12-overexpressed HEK lysate; read-out: IC50 (Substrate-based assay_ABHD12-overexpressed HEK lysate)
T2 construct: expressed in transfected cells; host or cells: HEK293T
T2 sequence (Q8N2K0 1-398): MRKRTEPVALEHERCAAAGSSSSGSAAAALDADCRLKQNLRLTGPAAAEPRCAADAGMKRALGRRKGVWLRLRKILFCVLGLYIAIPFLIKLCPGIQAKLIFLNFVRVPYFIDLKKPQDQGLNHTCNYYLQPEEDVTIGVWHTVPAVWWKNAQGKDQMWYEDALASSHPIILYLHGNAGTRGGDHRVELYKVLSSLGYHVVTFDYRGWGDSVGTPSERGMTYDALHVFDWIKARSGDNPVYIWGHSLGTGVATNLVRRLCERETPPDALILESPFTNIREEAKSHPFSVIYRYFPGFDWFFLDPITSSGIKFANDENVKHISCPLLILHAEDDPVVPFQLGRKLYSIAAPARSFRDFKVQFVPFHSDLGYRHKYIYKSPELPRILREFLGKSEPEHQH
Method: Lyso-PS Hydrolysis Assay:
The lyso-PS lipase activity of ABHD12 was determined as previously described (Blankman, J. L., Long, J. Z., Trauger, S. A., Siuzdak, G. & Cravatt, B. F. ABHD12 controls brain lysophosphatidylserine pathways that are deregulated in a murine model of the neurodegenerative disease PHARC. Proc. Natl. Acad. Sci. U. S. A. 110, 1500-1505, doi:10.1073/pnas.1217121110 (2013)) with some minor modifications. The proteome concentrations were adjusted to 0.25 mg/mL (ABHD12-overexpressing HEK293T membrane) or 0.5 mg/mL (mouse brain membrane) in Dulbecco's phosphate-buffered saline (DPBS) (80 μL/reaction). 20 μL of 500 μM 17:1 lyso-PS in DPBS was added to each reaction (100 μM final concentration) and incubated at 37° C. After 30 min, the reaction was quenched with 400 μL of 2:1 CHCl3/MeOH (v/v) with 1 nmol 15:0 FFA as an internal standard. The mixture was vortexed and centrifuged at 1,400× g to separate the aqueous and organic phase. The organic phase was analyzed by LC-MS (1200 LC/MSD, Agilent Technologies). The separation of the analyte was achieved using a 50 mm×4.6 mm 5 μm Gemini C18 column (Phenomenex) coupled to a guard column (Gemini: C18: 4×3 mm). The LC solvents were as follows: buffer A, […] (95:5, v/v) with 0.1% NH4OH (v/v); and buffer B, iPrOH:MeOH:H2O (60:3 5:5, v/v/v) with 0.1% NH4OH (v/v). The LC method consisted of 0.1 mL/min 20% buffer B for 1.0 min, 0.4 ml/min isocratic mode of 100% buffer B over 7 min and equilibration with 0.5 mL/min 100% buffer A for 3 min. The MS analyses were performed using an electrospray ionization source (ESI) in negative ion mode to measure product formation. MS data were acquired in selected ion monitoring mode at m/z 267.20 for 17:1 FFA and m/z 241.20 for 15:0 FFA.

inhibition at 10 µM [1] [%] | pIC50 [1] | pIC50 [2] | SMILES
≥ 75 | 4.60 to 6.00 | 4.60 to 6.00 | FC(F)(F)c1cnc(N2CCC(NC(=S)Nc3cccnc3)CC2)c(Cl)c1 [Example 1, 1-(1-(3-Chloro-5-(trifluoromethyl)pyridin-2-yl)piperidin-4-yl)-3-(pyridin-3-yl)thiourea]
≥ 75 | 4.60 to 6.00 | 4.60 to 6.00 | FC(F)(F)c1ccc(N2CCC(NC(=S)Nc3cccnc3)CC2)nc1 [Example 14, 1-(Pyridin-3-yl)-3-(1-(5-(trifluoromethyl)pyridin-2-yl)piperidin-4-yl)thiourea]
25 to 50 | 4.60 to 6.00 | 4.60 to 6.00 | FC(F)(F)c1cccnc1N1CCC(NC(=S)Nc2cccnc2)CC1 [Example 16, 1-(Pyridin-3-yl)-3-(1-(3-(trifluoromethyl)pyridin-2-yl)piperidin-4-yl)thiourea]
≥ 75 | 4.60 to 6.00 | 4.60 to 6.00 | FC(F)(F)c1cc(N2CCC(NC(=S)Nc3cccnc3)CC2)ncc1Cl [Example 25, 1-(1-(5-Chloro-4-(trifluoromethyl)pyridin-2-yl)piperidin-4-yl)-3-(pyridin-3-yl)thiourea]
≥ 75 | 6.00 to 7.00 | 6.00 to 7.00 | FC(F)(F)c1ccnc(N2CCC(NC(=S)Nc3cccnc3)CC2)c1Cl [Example 26, 1-(1-(3-Chloro-4-(trifluoromethyl)pyridin-2-yl)piperidin-4-yl)-3-(pyridin-3-yl)thiourea]
≥ 75 | 6.00 to 7.00 | 6.00 to 7.00 | FC(F)(F)c1cccc(N2CCC(NC(=S)Nc3cccnc3)CC2)n1 [Example 29, 1-(Pyridin-3-yl)-3-(1-(6-(trifluoromethyl)pyridin-2-yl)piperidin-4-yl)thiourea]
≥ 75 | 4.60 to 6.00 | 4.60 to 6.00 | S=C(Nc1cccnc1)NC1CCN(c2cc(Oc3ccccc3)ccn2)CC1 [Example 40, 1-(1-(4-Phenoxypyridin-2-yl)piperidin-4-yl)-3-(pyridin-3-yl)thiourea]
≥ 75 | 6.00 to 7.00 | 6.00 to 7.00 | FC(F)(F)c1ccc(Oc2ccnc(N3CCC(NC(=S)Nc4cccnc4)CC3)c2)cc1 [Example 51, 1-(Pyridin-3-yl)-3-(1-(4-(4-(trifluoromethyl)phenoxy)pyridin-2-yl)piperidin-4-yl)thiourea]
≥ 75 | – | 6.00 to 7.00 | FC(F)(F)Oc1ccc(Oc2ccnc(N3CCC(NC(=S)Nc4cccnc4)CC3)c2)cc1Cl [Example 54, 1-(1-(4-(3-Chloro-4-(trifluoromethoxy)phenoxy)pyridin-2-yl)piperidin-4-yl)-3-(pyridin-3-yl)thiourea]

Continued, molecule first:

SMILES | inhibition at 10 µM [1] [%] | pIC50 [1] | pIC50 [2]
FC(F)(F)Oc1ccc(Oc2ccnc(N3CCC(NC(=S)Nc4cccnc4)CC3)c2)cc1 [Example 2, 1-(Pyridin-3-yl)-3-(1-(4-(4-(trifluoromethoxy)phenoxy)pyridin-2-yl)piperidin-4-yl)thiourea] | ≥ 75 | 6.00 to 7.00 | 6.00 to 7.00
FC(F)(F)Oc1ccc(Oc2ccnc(N3CCC(NC(=S)Nc4cccnc4)CC3)c2Cl)cc1 [Example 3, 1-(1-(3-chloro-4-(4-(trifluoromethoxy)phenoxy)pyridin-2-yl)piperidin-4-yl)-3-(pyridin-3-yl)thiourea] | ≥ 75 | ≥ 7.00 | ≥ 7.00
FC(F)(F)Oc1ccc(Oc2ccnc(N3CCC(NC(=S)Nc4cccnc4)CC3)c2Cl)c(Cl)c1 [Example 4, 1-(1-(3-Chloro-4-(2-chloro-4-(trifluoromethoxy)phenoxy)pyridin-2-yl)piperidin-4-yl)-3-(pyridin-3-yl)thiourea] | – | ≥ 7.00 | ≥ 7.00
C#Cc1ccc(Oc2ccnc(N3CCC(NC(=S)Nc4cccnc4)CC3)c2Cl)c(Cl)c1 [Example 5, 1-(1-(3-Chloro-4-(2-chloro-4-ethynylphenoxy)pyridin-2-yl)piperidin-4-yl)-3-(pyridin-3-yl)thiourea] | – | – | ≥ 7.00
FC(F)(F)c1ccnc(N2CCC(NC(=S)Nc3cccnc3)CC2)c1 [Example 15, 1-(Pyridin-3-yl)-3-(1-(4-(trifluoromethyl)pyridin-2-yl)piperidin-4-yl)thiourea] | ≥ 75 | 6.00 to 7.00 | 4.60 to 6.00
FC(F)(F)c1cc(Cl)nc(N2CCC(NC(=S)Nc3cccnc3)CC2)c1 [Example 27, 1-(1-(6-Chloro-4-(trifluoromethyl)pyridin-2-yl)piperidin-4-yl)-3-(pyridin-3-yl)thiourea] | ≥ 75 | 6.00 to 7.00 | 6.00 to 7.00
S=C(Nc1cccnc1)NC1CCN(c2cc(Cl)ccn2)CC1 [Example 28, 1-(1-(4-Chloropyridin-2-yl)piperidin-4-yl)-3-(pyridin-3-yl)thiourea] | ≥ 75 | 4.60 to 6.00 | 4.60 to 6.00
Fc1ccc(Oc2ccnc(N3CCC(NC(=S)Nc4cccnc4)CC3)c2)cc1 [Example 41, 1-(1-(4-(4-Fluorophenoxy)pyridin-2-yl)piperidin-4-yl)-3-(pyridin-3-yl)thiourea] | ≥ 75 | 4.60 to 6.00 | 4.60 to 6.00
FC(F)(F)Oc1cc(Oc2ccnc(N3CCC(NC(=S)Nc4cccnc4)CC3)c2)ccc1Cl [Example 57, 1-(1-(4-(4-Chloro-3-(trifluoromethoxy)phenoxy)pyridin-2-yl)piperidin-4-yl)-3-(pyridin-3-yl)thiourea] | ≥ 75 | 6.00 to 7.00 | 6.00 to 7.00
FC(F)(F)Oc1ccc(Oc2ccnc(N3CCC(NC(=S)Nc4cccnc4)CC3)c2C(F)(F)F)cc1 [Example 59, 1-(Pyridin-3-yl)-3-(1-(4-(4-(trifluoromethoxy)phenoxy)-3-(trifluoromethyl)pyridin-2-yl)piperidin-4-yl)thiourea] | ≥ 75 | 4.60 to 6.00 | 4.60 to 6.00

From US11897865B2, “ABHD12 inhibitors and methods of making and using same” (THE SCRIPPS RESEARCH INSTITUTE, priority 2018, dated 2024)
